In US9226950B2, “Method and composition for treating diabetes mellitus” (National Dong Hwa University, priority 2013, dated 2016):

What was measured:
GLUT4 = GLUT4 translocation assay in differentiated C2C12 myotubes; assay type: cell-based, mouse; conditions: FIG. 3
Experimental: Mouse muscle myoblast cells (C2C12) were obtained from the Food Industry Research and Development Institute (FIRDI, Hsinchu, Taiwan). The cells were grown and maintained in Dulbecco's Modified Eagle's Medium high glucose (DMEM-high glucose; GIBCO, CA, USA) containing 10% fetal bovine serum (FBS, GIBCO) and 1% penicillin streptomycin (GIBCO) in a cell culture incubator with 5% CO2 at 37° C. Prior to the following experiments, the cells were seeded and cultured at a density of 8×10^3 cells per well in 96-well plates or 2.5×10^5 cells per well in 6-well plates. […]
The C2C12 cells were fully differentiated with DMEM supplemented with 1% FBS and 1% horse serum for 4 days. […] The translocation changes of GLUT4 of the cells were detected. […] The HRP activity was determined by measuring the absorbance at 450 nm with a spectrophotometer (EnSpire 2300 Multilabel Reader, Perkin Elmer, Waltham, Mass., USA).
To detect the effect of tetracosanol on Glut4 translocation in S961-induced insulin resistance, the differentiated C2C12 cells were treated with or without 20 nM S961 (S961) followed by 185 μM of insulin (Ins), and treated with or without 100 μM of Tetracosanol (Tet) (n=4 in each group). […] At the cellular level, the ability of glucose uptake was determined by controlling the amount of the GLUT4 glucose transporter present in the plasma membrane. […]

L6 myotubes = assay: Glucose uptake assay (2-deoxyglucose) in L6 myotubes; assay type: cell-based, rat; conditions: FIG. 4
Experimental: […] muscle myoblast cells (L6) was a generous gift from Professor Hitoshi Ashida's Lab. (Kobe University, Kobe, Japan). The cells were grown and maintained in α-minimal essential medium (α-MEM, 12000022, GIBCO, CA, USA) containing 10% fetal bovine serum (FBS, GIBCO) and 1% penicillin streptomycin (GIBCO) in a cell culture incubator with 5% CO2 at 37° C. Prior to the following experiments, the cells were seeded and cultured at a density of 8×10^3 cells per well in 96-well plates or 2.5×10^5 cells per well in 6-well plates. After the myoblasts achieved 80% confluence, the cells were incubated for 5 days in the α-MEM supplemented with 2% FBS to induce differentiation to myotubes.
The glucose uptake assay was followed the study disclosed in Yamamoto et al. (“An enzymatic fluorimetric assay to quantitate 2-deoxyglucose and 2-deoxyglucose-6-phosphate for in vitro and in vivo use.” Anal Biochem 404(2): 238-240, 2010) with minor modification and the technique generously assistant from Professor Hitoshi Ashida's Lab (Kobe University, Kobe, Japan). […] Uptake of 2DG into the cells was measured by the enzymatic fluorescence assay. The fluorescence assay buffer was composed of 50 mM TEA buffer, 0.1% BSA, 2.5 mM β-NADP (Wako Pure Chemical, Osaka, Japan), 0.05 unit Diaphorase (Wako), 150 unit/L. mesenteriodes G6PDH (sigma), and 0.5 mM Resazurin sodium salt (sigma). […]

CCCCCCCCCCCCCCCCCCCCCCCCO [tetracosanol]
insulin-dependent GLUT4 translocation (GLUT4; insulin resistance C2C12 differentiated myotubes induced by 20 nM S961, insulin plus tetracosanol (100 μM)): provided the recovery ability
insulin-dependent GLUT4 translocation (GLUT4; normal C2C12 differentiated myotubes (Ins), 100 μM tetracosanol, 185 μM insulin): no effects
cell glucose uptake (L6 myotubes; 1 μM insulin plus 400 nM S961 and 10 μM tetracosanol (Ins+S961+Tet) versus Ins+Tet): synergistic effect
cell glucose uptake (L6 myotubes; 10 μM tetracosanol with 1 μM insulin (Ins+Tet)): enhanced the cell glucose uptake
